Experimental findings from patent publication US20240076347A1, “METHODS FOR PREVENTING FUNGAL INFECTIONS” (Cidara Therapeutics, Inc., priority 2016, published 2024) are described below.

SMILES strings stand for the structures. Numbered stars: 1 amine (or outer) side, 2 acyl side, 3 side chain; on linkers, the order of the positions; unused ones are H or OH. Bridge positions count the residues as written; N and C are the ends. Square brackets hold non-standard residues; d marks the D form. Peptide text beside a SMILES is read from it. * marks the point of attachment. hTyr(3S-OH,4S-OH,3'-OSO3H) = N[C@H](C(=O)O)[C@H](O)[C@@H](O)c1ccc(O)c(OS(=O)(=O)O)c1; Orn(4R-OH,5R-OH) = O=C([C@H](C[C@@H](O)[C@@H](O)N[*:3])N[*:1])[*:2]; Pro(3S-OH,4S-Me) = C[C@H]1CN[C@H](C(=O)O)[C@H]1O; X2 = CCCCCOc1ccc(-c2cc(-c3ccc(C(=O)*)cc3)no2)cc1; Gln(3R-OH) = NC(=O)C[C@@H](O)[C@H](N)C(=O)O; Hyp = O=C(O)[C@@H]1C[C@@H](O)CN1

Assay [1] deals with Aspergillus fumigatus (strain AF293). Nature of the assay: Murine model of pulmonary aspergillosis (Example 9), survival and lung burden. The format is in vivo. Conditions: for Group Geometric mean / Log10 Group Geometric mean / Log10 reduction from vehicle control: terminal lung burden. The protocol:
Animal Strain and Housing. Mice used in these studies were supplied by Charles River (Margate UK) and were specific pathogen free. The strain of mice used was ICR (also known as CD1 Mice) which is a well characterized outbred murine strain. Male mice were 11-15 g on receipt at our facility and allowed to acclimatize for at least seven days.
Immunosuppression. Mice were immunosuppressed on Day −4 with 150 mg/kg cyclophosphamide IP, and on Day −1 with 150 mg/kg cyclophosphamide IP and 175 mg/kg cortisone acetate SC. To prevent bacterial infection due to the immunosuppression mice were given 50 mg/kg/day ceftazidime.
Preparation of Organism and Infection. A. fumigatus strain AF293 inoculum was prepared from spore cultures grown on Sabouraud Dextrose agar (SAB) containing 50 μg/mL chloramphenicol (SABC) in vented tissue culture flasks. Following incubation for 7-10 days at 30° C., spore cultures were washed in sterile phosphate buffered saline (PBS) containing 0.05% Tween 80. Spore count was determined using a haemocytometer and spores were diluted in PBS to ˜6.9×10^6 CFU/mL. Inoculum concentration was confirmed by quantitative culture onto SABC agar. Neutropenic mice lungs were infected with 0.04 mL (0.02 mL/nares) of ˜6.9×10^6 CFU/mL (˜2.8×10^5 cfu/mouse) of A. fumigatus strain AF293 by intranasal (IN) instillation under temporary 2.5% isoflurane induced anesthesia.
Preparation of Test Articles. Micafungin was provided as a 50 mg vial (Lot 02323002, expiry 08/2017) and was prepared as per manufacturer instructions by adding 5 mL saline for injection (SFI) directly into the vial to make a 10 mg/mL stock solution. This solution was then diluted further in SFI to a working concentration of 0.2 mg/mL. The compound was administered IP at 10 mL/kg to achieve a 2 mg/kg dose. It was prepared fresh once and stored at 4° C. between doses.
Test article CD101 stock was prepared at 2 mg/mL in 10% DMSO/1% Tween 20 diluent. A clear non particulate solution was obtained following gentle mixing. The stock was kept at 4° C. until required. Study doses of 5 mg/kg (0.5 mg/mL) and 10 mg/kg (1 mg/mL) were prepared from the 2 mg/mL stock as required by diluting in 10% DMSO/1% Tween 20 diluent. The 2 mg/mL stock was used undiluted for the 20 mg/kg study dose. All doses were administered IP at 10 mL/kg.
Treatment. For this study, treatments were initiated on day five pre-infection according to treatment groups outlined in Table 15. A total of 78 mice (six mice per treatment group) were used in the study.
Endpoints. The primary endpoint for this study was survival within agreed ethical limits (>20% weight loss, severe hypothermia <34° C., inability to reach food or drink, severe hunching). Mice were monitored by daily weight measurements with observations as frequently as clinical condition required. Mice presenting with severe clinical deterioration were humanely euthanized using an overdose of pentobarbitone administered by IP injection following clinical assessment and the time of death was recorded. Animal carcasses were stored at −20° C. for assessment of burden. Ten days post infection all surviving animals were weighed and had their clinical condition assessed prior to being euthanized. Final survival numbers were recorded and analyzed as described below and carcasses frozen at −20° C. prior to further processing.
A secondary endpoint for the study was terminal lung tissue burden. Immediately following confirmation of death, carcasses were frozen at −20° C. prior to tissue dissection and processing. The frozen carcasses were thawed at room temperature and the lungs removed and placed into pre-weighed bead-beating tubes containing 2 mL of PBS and subjected to mechanical disruption. Organ homogenates were diluted further in PBS and quantitatively cultured for A. fumigatus onto SABC and incubated at 30° C. for 24-48 hours. […]

For another assay, the system named is Candida albicans SC5314. Put plainly: Immunocompetent DBA/2 mouse model of disseminated candidiasis, treatment, kidney CFU. The format is in vivo. The following applies: 24 hr. As for the experimental part: The efficacy of CD101 SC was studied in an immunocompetent DBA/2 mouse model of disseminated candidiasis. Mice (5/grp) were challenged with Candida albicans SC5314 (ATCC: MYA-2876, fluconazole-sensitive human clinical isolate shown to be pathogenic in mice) via IV injection (100 μL, 5.0 log CFU/mouse) and treated with CD101 SC (1, 3 or 10 mg/kg). Micafungin via IP administration was tested as a positive control at the same 3 doses. At 24 hours following challenge, kidneys were harvested and processed for CFU enumeration. All comparisons were made between the treatment and time-matched vehicle groups.

Setting [2] is: 2 mg/kg IP Day 0 (1 h post infection).

With `CCCCCOc1ccc(-c2cc(-c3ccc(C(=O)N[C@H]4C[C@@H](O)[C@@H](O)NC(=O)[C@@H]5[C@@H](O)[C@@H](C)CN5C(=O)[C@H]([C@H](O)CC(N)=O)NC(=O)[C@H]([C@H](O)[C@@H](O)c5ccc(O)c(OS(=O)(=O)O)c5)NC(=O)[C@@H]5C[C@@H](O)CN5C(=O)[C@H]([C@@H](C)O)NC4=O)cc3)no2)cc1` [Micafungin, micafungin, reference compound] (X2-[Orn(4R-OH,5R-OH)]T[Hyp][hTyr(3S-OH,4S-OH,3'-OSO3H)][Gln(3R-OH)][Pro(3S-OH,4S-Me)]; lactam 1-C), in assay [1] (setting [2]), the “Mean Survival” value amounted to 75.3 h and the “Median Survival” value turned out to be 73.3 h. In assay [1] (2 mg/kg IP Day −1), the “Mean Survival” value was 64.7 h, the “Median Survival” value was found to be 64.7 h, the “Group Geometric mean” value is recorded as 4.34 × 10^4 CFU/g and the “Log10 Group Geometric mean” value came out at 4.64 CFU/g. For the same compound, the “Log10 reduction from vehicle control” value in assay [1] (2 mg/kg IP Day −1) is listed as −0.86 CFU/g. For the same compound, in assay [1] (2 mg/kg IP Day 0), the “Group Geometric mean” value was 1.08 × 10^4 CFU/g, the “Log10 Group Geometric mean” value worked out at 4.03 CFU/g and the “Log10 reduction from vehicle control” value was −0.26 CFU/g. The “kidney CFU” value in the assay with Candida albicans SC5314 (10 mg/kg IP only) is “complete clearance”. The “kidney CFU” value in the assay on Candida albicans SC5314 (1, 3 and 10 mg/kg IP) is recorded as “good dose response in CFU reduction”.
